Data reported in ChEMBL document CHEMBL1201862, “PubChem BioAssay data set” (2004).
Activity calls are given as the source filed them.

Target: Cytochrome P450 3A4 (Homo sapiens, UniProt P08684);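 note: CYP3A4 tested as one member of a cytochrome P450 panel screen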
Assay: not given
Conditions: not given

Cytochrome P450 3A4, sequence (P08684 whole entry): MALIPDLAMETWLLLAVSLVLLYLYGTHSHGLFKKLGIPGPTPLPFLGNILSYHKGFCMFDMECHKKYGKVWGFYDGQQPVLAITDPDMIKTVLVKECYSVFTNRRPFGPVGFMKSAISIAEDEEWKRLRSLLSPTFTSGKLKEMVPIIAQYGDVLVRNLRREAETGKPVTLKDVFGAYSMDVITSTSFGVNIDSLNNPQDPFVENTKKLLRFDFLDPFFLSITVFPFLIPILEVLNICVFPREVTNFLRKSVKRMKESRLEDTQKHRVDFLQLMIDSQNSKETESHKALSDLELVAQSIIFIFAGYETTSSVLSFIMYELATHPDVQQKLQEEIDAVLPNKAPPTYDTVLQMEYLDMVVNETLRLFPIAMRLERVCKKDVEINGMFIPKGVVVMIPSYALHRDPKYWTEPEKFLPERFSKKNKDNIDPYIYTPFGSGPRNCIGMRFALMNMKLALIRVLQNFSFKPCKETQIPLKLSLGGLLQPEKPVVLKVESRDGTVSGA

Q: Which AC50 does the source give for COC(=O)N1CCC2(CC1)CN(c1ccccn1)C2 here?
A: Its AC50 is “inconclusive”.

Q: For O=C(c1ccco1)N1CCC2(CC1)CN(c1ccc(-c3ccccc3)cc1)C2, which AC50 is on record?
A: The AC50 was “inconclusive”.

Q: With Oc1ccc2[nH]cc(CCCCN3CC=C(c4ccccc4)CC3)c2c1 [ROXINDOLE] as the compound, how does the AC50 read?
A: The AC50 was “inconclusive”.

Tested on: not listed separately
Assay: HeLa cell cytotoxicity, dose response, cytotoxicity control for MgcRacGAP inhibitor project (AID 624300)
Format: functional
Conditions: not given

Q: For CCCN1C(=O)/C(=C/c2cc(C)n(C)c2C)S/C1=N/c1ccc(OCC)cc1, which CC50 is on record?
A: The CC50 was 100 µM (active).

Target: Cytochrome P450 2C9 (Homo sapiens, UniProt P11712)
Assay: not given
Conditions: not given

Cytochrome P450 2C9, sequence (P11712 whole entry): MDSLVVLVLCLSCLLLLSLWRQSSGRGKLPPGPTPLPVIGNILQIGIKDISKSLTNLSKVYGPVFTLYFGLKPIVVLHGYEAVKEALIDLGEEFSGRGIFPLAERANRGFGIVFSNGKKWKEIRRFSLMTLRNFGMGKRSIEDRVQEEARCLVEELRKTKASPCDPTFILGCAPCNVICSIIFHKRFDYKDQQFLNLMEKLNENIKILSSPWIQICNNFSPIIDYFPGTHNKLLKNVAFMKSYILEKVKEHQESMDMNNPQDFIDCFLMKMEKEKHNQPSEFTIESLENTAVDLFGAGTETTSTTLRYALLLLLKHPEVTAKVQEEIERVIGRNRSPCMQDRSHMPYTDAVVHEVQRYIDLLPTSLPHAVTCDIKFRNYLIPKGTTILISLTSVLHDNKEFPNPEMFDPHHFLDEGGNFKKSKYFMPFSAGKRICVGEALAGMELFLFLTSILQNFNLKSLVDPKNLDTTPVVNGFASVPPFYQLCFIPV

Q: Which AC50 does the source give for Oc1ccc2[nH]cc(CCCCN3CC=C(c4ccccc4)CC3)c2c1 [ROXINDOLE] here?
A: The AC50 was 12.6 µM (inconclusive).

Target: T1, Cytochrome P450 1A2 (Homo sapiens, UniProt P05177);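 note: PubChem cytochrome P450 panel assay, CYP1A2 panel member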
T1 sequence (P05177 whole entry): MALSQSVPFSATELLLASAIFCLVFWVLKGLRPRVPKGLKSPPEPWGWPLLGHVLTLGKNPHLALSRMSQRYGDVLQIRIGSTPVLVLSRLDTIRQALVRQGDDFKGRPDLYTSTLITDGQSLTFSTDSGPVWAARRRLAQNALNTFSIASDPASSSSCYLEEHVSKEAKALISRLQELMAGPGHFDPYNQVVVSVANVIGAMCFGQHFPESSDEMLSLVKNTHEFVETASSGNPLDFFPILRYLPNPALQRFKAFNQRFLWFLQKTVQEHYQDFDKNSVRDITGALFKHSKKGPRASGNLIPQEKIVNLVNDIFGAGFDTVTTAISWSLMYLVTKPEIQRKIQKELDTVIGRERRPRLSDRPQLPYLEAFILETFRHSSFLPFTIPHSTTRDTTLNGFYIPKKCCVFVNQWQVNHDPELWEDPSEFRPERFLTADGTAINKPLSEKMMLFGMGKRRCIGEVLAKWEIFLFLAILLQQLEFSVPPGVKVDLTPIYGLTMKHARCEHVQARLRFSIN
Assay: not given
Conditions: not given

Q: For O=C(c1ccco1)N1CCC2(CC1)CN(c1ccc(-c3ccccc3)cc1)C2, which AC50 is on record?
A: Its AC50 is 1 µM (inconclusive).

Target: T2, Polyadenylate-binding protein 1 (Homo sapiens, UniProt P11940)
Assay: PABP1 MLLE–PAM2 interaction inhibitors, dose response, miRNA deadenylation inhibitor project, biochemical, fluorescence polarization, Cy5-PAM2 peptide, secondary (AID 602260)
Format: functional
Conditions: read-out: IC50_Mean

T2 sequence (P11940 whole entry): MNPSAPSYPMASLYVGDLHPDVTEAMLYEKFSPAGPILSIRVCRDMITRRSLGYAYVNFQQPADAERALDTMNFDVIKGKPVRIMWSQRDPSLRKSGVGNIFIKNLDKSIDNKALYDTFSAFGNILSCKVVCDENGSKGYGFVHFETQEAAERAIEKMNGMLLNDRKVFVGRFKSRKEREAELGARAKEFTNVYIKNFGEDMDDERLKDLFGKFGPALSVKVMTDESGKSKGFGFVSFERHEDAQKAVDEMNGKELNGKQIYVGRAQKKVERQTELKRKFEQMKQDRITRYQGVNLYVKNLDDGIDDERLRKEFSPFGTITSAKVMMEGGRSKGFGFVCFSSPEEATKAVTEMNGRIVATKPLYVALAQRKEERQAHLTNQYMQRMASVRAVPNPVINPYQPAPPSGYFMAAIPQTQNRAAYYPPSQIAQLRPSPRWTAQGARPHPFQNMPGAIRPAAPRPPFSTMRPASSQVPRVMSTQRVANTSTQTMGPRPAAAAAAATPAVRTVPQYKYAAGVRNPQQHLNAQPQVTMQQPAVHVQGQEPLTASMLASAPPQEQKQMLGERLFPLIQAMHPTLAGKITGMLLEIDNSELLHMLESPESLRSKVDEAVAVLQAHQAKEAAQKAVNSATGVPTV

Q: Which IC50 does the source give for O=C(CCCN1C(=O)/C(=C/c2ccccc2Cl)SC1=S)NCCCN1CCOCC1 here?
A: Its IC50 is > 66 µM (inactive).

Target: T3, Sentrin-specific protease 7 (Homo sapiens, UniProt Q9BQF6);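 note: Luminescence-based dose-response confirmation of ultra-high-throughput screening hits, measuring inhibition of SENP7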
T3 sequence (Q9BQF6 whole entry): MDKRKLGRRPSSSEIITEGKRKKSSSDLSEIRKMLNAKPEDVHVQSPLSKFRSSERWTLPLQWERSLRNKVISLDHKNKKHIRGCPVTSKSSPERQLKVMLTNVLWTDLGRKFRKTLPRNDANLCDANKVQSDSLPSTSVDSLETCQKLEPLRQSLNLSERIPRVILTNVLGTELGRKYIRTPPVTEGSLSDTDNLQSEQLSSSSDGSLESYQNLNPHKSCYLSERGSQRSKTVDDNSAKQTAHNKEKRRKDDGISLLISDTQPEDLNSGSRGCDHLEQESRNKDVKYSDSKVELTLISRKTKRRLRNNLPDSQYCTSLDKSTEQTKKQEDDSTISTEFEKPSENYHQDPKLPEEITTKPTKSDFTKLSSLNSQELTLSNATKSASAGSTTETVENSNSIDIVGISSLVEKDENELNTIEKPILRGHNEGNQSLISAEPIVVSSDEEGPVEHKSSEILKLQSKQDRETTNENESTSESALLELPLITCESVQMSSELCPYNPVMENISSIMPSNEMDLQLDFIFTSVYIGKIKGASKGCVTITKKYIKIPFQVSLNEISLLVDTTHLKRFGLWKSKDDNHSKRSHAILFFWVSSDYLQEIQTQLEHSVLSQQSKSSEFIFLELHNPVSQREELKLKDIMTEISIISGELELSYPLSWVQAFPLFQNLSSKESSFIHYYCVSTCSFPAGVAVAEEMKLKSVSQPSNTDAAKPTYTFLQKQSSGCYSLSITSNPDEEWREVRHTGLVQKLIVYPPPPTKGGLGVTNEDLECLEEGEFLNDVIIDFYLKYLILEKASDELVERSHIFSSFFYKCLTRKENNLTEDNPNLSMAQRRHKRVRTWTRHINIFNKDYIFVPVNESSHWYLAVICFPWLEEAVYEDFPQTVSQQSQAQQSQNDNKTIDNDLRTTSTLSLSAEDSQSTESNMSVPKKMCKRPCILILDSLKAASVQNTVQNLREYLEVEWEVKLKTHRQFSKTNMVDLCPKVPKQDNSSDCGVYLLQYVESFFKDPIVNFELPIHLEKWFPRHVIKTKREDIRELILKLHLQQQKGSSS
Assay: not given
Format: functional
Conditions: not given

Q: For O=C(Nc1cc(Cl)cc(Cl)c1)c1cccc(OC(F)F)c1, which IC50 is on record?
A: The IC50 was 11.8 µM (active).

Q: For COc1ccc(C(=O)CNc2ccccc2Br)cc1, which IC50 is on record?
A: The IC50 was 6.34 µM (active).

Q: For c1ccc(Cn2nc(-c3ccccc3)nc2-c2ccccc2)cc1, which IC50 is on record?
A: Its IC50 is 8.63 µM (active).

Q: With O=C(CCCN1C(=O)/C(=C/c2ccccc2Cl)SC1=S)NCCCN1CCOCC1 as the compound, how does the IC50 read?
A: Its IC50 is 14.8 µM (active).

Q: For O=C(Nc1ccc(Br)cc1)Nc1ccccc1Cl, which IC50 is on record?
A: Its IC50 is 7.21 µM (active).

Q: For COc1cccc(C(=O)Oc2ccc3ccc(O)cc3c2)c1, which IC50 is on record?
A: The IC50 was 7.37 µM (active).

Target: Cytochrome P450 2D6 (Homo sapiens, UniProt P10635);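 note: CYP2D6 member of a cytochrome P450 panel assay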
Assay: not given
Conditions: not given

Cytochrome P450 2D6, sequence (P10635 whole entry): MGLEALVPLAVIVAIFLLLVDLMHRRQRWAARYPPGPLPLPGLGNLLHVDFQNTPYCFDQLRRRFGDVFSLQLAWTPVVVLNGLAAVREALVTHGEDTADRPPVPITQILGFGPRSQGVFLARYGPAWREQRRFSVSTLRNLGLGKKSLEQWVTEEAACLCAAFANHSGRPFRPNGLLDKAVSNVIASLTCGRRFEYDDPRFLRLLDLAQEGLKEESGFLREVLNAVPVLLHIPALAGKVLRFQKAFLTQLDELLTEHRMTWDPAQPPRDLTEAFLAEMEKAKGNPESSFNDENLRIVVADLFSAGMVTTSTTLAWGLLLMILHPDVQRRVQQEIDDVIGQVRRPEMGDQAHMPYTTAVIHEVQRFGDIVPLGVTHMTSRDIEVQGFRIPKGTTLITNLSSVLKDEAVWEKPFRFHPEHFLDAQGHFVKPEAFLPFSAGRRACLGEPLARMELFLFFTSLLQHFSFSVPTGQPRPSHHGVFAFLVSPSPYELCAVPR

Q: With COC(=O)N1CCC2(CC1)CN(c1ccccn1)C2 as the compound, how does the AC50 read?
A: Its AC50 is 10 µM (inconclusive).

Target: Cytochrome P450 2C19 (Homo sapiens, UniProt P33261)
Assay: Cytochrome panel assay with activity outcomes. Panel member name: p450-cyp2c19 Compounds with AC50 equal or less than 10 uM are considered active
Format: functional
Conditions: read-out: AC50

Cytochrome P450 2C19, sequence (P33261 whole entry): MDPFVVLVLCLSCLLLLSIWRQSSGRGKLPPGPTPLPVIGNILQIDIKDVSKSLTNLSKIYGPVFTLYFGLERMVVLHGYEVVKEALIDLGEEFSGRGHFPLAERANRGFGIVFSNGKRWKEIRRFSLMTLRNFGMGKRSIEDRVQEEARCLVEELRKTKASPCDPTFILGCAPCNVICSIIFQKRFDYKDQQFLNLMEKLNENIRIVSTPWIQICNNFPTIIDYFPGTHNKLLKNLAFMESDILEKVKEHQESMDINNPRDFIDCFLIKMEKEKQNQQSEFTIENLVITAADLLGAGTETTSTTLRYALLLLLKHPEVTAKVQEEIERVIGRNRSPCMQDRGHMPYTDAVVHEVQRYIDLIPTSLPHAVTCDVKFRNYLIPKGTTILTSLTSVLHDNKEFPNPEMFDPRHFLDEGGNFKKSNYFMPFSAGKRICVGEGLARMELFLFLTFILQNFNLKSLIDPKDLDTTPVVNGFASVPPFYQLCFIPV

Q: With O=C(c1ccco1)N1CCC2(CC1)CN(c1ccc(-c3ccccc3)cc1)C2 as the compound, how does the AC50 read?
A: Its AC50 is 0.158 µM (inconclusive).

Q: Which AC50 does the source give for Oc1ccc2[nH]cc(CCCCN3CC=C(c4ccccc4)CC3)c2c1 [ROXINDOLE] here?
A: The AC50 was 20 µM (inconclusive).

Target: T4, Sentrin-specific protease 8 (Homo sapiens, UniProt Q96LD8);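 note: luminescence read-out of SENP8 inhibition, dose-response confirmation following an ultra-high-throughput screen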
T4 sequence (Q96LD8 whole entry): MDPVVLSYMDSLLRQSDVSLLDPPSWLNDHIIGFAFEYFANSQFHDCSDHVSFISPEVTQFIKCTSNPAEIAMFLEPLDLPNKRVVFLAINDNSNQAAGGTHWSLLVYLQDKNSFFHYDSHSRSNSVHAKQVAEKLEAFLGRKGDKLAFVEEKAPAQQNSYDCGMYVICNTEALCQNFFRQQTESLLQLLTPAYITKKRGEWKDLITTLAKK
Assay: not given
Format: functional
Conditions: not given

Q: For O=C(Nc1cc(Cl)cc(Cl)c1)c1cccc(OC(F)F)c1, which IC50 is on record?
A: Its IC50 is 53.9 µM (active).

Q: Which IC50 does the source give for COc1ccc(C(=O)CNc2ccccc2Br)cc1 here?
A: The IC50 was 82.8 µM (active).

Q: With c1ccc(Cn2nc(-c3ccccc3)nc2-c2ccccc2)cc1 as the compound, how does the IC50 read?
A: The IC50 was 30.4 µM (active).

Q: For O=C(CCCN1C(=O)/C(=C/c2ccccc2Cl)SC1=S)NCCCN1CCOCC1, which IC50 is on record?
A: Its IC50 is 43.6 µM (active).

Q: For O=C(Nc1ccc(Br)cc1)Nc1ccccc1Cl, which IC50 is on record?
A: Its IC50 is 26.8 µM (active).

Q: Which IC50 does the source give for COc1cccc(C(=O)Oc2ccc3ccc(O)cc3c2)c1 here?
A: The IC50 was 17 µM (active).

Target: T5, Sentrin-specific protease 6 (Homo sapiens, UniProt Q9GZR1);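 note: Luminescence-based dose-response confirmatory assay of SENP6 inhibition, following up an ultra-high-throughput screen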
T5 sequence (Q9GZR1 whole entry): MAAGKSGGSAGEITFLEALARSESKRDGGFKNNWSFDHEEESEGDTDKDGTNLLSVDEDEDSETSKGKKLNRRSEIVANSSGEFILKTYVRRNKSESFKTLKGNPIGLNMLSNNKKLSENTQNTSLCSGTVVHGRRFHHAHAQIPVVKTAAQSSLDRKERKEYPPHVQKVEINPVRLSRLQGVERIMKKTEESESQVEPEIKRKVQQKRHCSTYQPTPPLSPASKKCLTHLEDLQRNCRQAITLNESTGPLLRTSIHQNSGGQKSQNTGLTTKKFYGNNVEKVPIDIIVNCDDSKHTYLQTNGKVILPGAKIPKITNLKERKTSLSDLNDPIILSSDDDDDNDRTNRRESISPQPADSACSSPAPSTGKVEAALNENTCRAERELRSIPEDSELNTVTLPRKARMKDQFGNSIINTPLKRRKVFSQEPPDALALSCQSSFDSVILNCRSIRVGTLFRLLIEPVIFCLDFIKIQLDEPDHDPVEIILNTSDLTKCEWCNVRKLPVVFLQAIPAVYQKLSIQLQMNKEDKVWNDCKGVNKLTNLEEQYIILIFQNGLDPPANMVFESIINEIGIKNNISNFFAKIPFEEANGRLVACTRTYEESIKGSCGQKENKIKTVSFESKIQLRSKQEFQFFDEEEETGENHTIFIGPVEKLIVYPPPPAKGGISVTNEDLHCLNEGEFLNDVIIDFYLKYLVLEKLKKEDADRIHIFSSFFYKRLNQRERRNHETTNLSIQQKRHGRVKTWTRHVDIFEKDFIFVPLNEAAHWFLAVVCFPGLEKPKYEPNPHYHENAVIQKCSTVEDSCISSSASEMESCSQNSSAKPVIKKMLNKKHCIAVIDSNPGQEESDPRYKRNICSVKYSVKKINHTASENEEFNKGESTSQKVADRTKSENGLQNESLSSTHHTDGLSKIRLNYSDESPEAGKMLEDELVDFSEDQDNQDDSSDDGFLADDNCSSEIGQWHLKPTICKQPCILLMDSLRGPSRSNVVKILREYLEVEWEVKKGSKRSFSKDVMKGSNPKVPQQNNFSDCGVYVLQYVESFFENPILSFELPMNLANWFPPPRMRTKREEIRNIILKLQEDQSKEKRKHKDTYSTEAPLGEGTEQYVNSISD
Assay: not given
Format: functional
Conditions: not given

Q: With O=C(Nc1cc(Cl)cc(Cl)c1)c1cccc(OC(F)F)c1 as the compound, how does the IC50 read?
A: Its IC50 is 46.9 µM (active).

Q: For COc1ccc(C(=O)CNc2ccccc2Br)cc1, which IC50 is on record?
A: Its IC50 is 27.4 µM (active).

Q: Which IC50 does the source give for c1ccc(Cn2nc(-c3ccccc3)nc2-c2ccccc2)cc1 here?
A: The IC50 was 25 µM (active).

Q: With O=C(CCCN1C(=O)/C(=C/c2ccccc2Cl)SC1=S)NCCCN1CCOCC1 as the compound, how does the IC50 read?
A: Its IC50 is 36.7 µM (active).

Q: With O=C(Nc1ccc(Br)cc1)Nc1ccccc1Cl as the compound, how does the IC50 read?
A: Its IC50 is 7.19 µM (active).

Q: With COc1cccc(C(=O)Oc2ccc3ccc(O)cc3c2)c1 as the compound, how does the IC50 read?
A: Its IC50 is 20.9 µM (active).

Target: T2, Polyadenylate-binding protein 1
Assay: PABP1 MLLE–PAM2 binding inhibitor potency, dose response, biochemical, fluorescence polarization, FITC-PAM2 peptide (AID 602259)
Format: functional
Conditions: read-out: IC50_Mean

Q: Which IC50 does the source give for O=C(CCCN1C(=O)/C(=C/c2ccccc2Cl)SC1=S)NCCCN1CCOCC1 here?
A: The IC50 was > 66 µM (inactive).

Target: T6, Caspase-3 (Homo sapiens, UniProt P42574);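 note: Dose-response selectivity test against caspase-3 for candidate inhibitors of sentrin-specific proteases (SENPs)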
T6 sequence (P42574 whole entry): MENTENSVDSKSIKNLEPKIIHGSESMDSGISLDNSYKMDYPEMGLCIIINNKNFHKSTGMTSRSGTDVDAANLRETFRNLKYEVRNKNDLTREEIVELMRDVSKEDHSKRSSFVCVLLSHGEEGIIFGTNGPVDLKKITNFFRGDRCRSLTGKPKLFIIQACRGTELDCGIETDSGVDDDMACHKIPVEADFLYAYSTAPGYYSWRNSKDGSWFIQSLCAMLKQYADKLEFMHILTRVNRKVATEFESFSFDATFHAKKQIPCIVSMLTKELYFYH
Assay: not given
Format: functional
Conditions: not given

Q: Which IC50 does the source give for O=C(Nc1cc(Cl)cc(Cl)c1)c1cccc(OC(F)F)c1 here?
A: Its IC50 is > 100 µM (inactive).

Q: With COc1ccc(C(=O)CNc2ccccc2Br)cc1 as the compound, how does the IC50 read?
A: Its IC50 is 22 µM (active).

Q: Which IC50 does the source give for c1ccc(Cn2nc(-c3ccccc3)nc2-c2ccccc2)cc1 here?
A: The IC50 was 32 µM (active).

Q: With O=C(CCCN1C(=O)/C(=C/c2ccccc2Cl)SC1=S)NCCCN1CCOCC1 as the compound, how does the IC50 read?
A: Its IC50 is 34.2 µM (active).

Q: Which IC50 does the source give for O=C(Nc1ccc(Br)cc1)Nc1ccccc1Cl here?
A: The IC50 was 24.6 µM (active).

Q: With COc1cccc(C(=O)Oc2ccc3ccc(O)cc3c2)c1 as the compound, how does the IC50 read?
A: Its IC50 is 40.1 µM (active).
